Assay: Solubility in ethanol of crystalline forms
Format: physicochemical
Conditions: compared to other crystalline forms

Compound: Cc1nc(-c2ccc(OCC(C)C)c(C#N)c2)sc1C(=O)O [Febuxostat form F10, 2-(3-cyano-4-isobutyloxyphenyl)-4-methylthiazole-5-carboxylic acid]
- solubility in ethanol: better solubility in ethanol compared to other crystalline forms

Source: US8742129B2, “Crystalline forms of febuxostat” (Teva Pharmaceuticals Industries Ltd., priority 2009, dated 2014)
